From publication PMC11091117, “A fluorescently-tagged tick kinin neuropeptide triggers peristalsis and labels tick midgut muscles” (Scientific Reports, 2024)
“Also recorded” adds a separate entry of the source. Where no end group is shown, it is not given here.

Assays:
[1] = system: R. microplus recombinant receptor; set-up: method as in PMID 31794138; conditions: cited from earlier work
[2] = system: tick kinin receptor (recombinant R. microplus receptor, CHO-K1 BMLK3 cells); assay: Cellular end-point fluorescence calcium mobilization assay, BMLK3 cells; format: cell-based, Rhipicephalus microplus
From the text: Three peptides were used in this study. These included: 1) the ligand for the endogenous tick kinin receptor from Rhipicephalus sanguineus, Rhisa-kinin 8 peptide of sequence GTGEDQAFSPWGamide (Rhisa-K-8; RK8; of identical sequence to Rhimi-K-8 in Rhipicephalus microplus)[48], 2) the same peptide but fluorescently labeled at the N-terminus with tetramethylrhodamine (TMR) a red fluorescent dye, designated TMR-Rhisa-K-8 (TMR-RK8), and 3) a labeled peptide synthesized with the scrambled sequence of the kinin ligand, designated TMR-Scrambled. The sequence of TMR-RK8 was TMR-C-GTGEDQAFSPWGamide). The TMR-Scrambled kinin (TMR-C-GTQWGPGFEADSamide) served as a negative control for tissue labeling. All peptides were custom-synthesized and purchased from GenScript (Piscataway, NJ, USA) with a purity of ≥ 95% and the cysteine in bold in both sequences was added to attach the label. Experiments were replicated with independently synthesized batches (4 mg each) of labeled and unlabeled peptides, for reproducibility. Unlabeled RK8 was used as a competitive ligand to verify target-specific binding of the labeled TMR-RK8 (see Ligand Competition Assay). For cell assays, the peptide stock solutions (100 µM) were made in 1% dimethyl sulfoxide (DMSO) in Hank’s balanced salt solution (HBSS, Thermo Fisher, Waltham, USA). For fluorescent cell labeling, peptide working solutions (10 µM) were prepared in HBSS from stock solutions. For assays on the midgut, peptides were solubilized and diluted in a tick physiological saline consisting of 140 mM NaCl, 5 mM KCl, 1 mM MgCl2, 5 mM CaCl2, 4 mM NaHCO3, and 5 mM HEPES, pH 7.2[49].
The tick kinin receptor is stably expressed in the recombinant CHO-K1 cell line designated BMLK3 (Boophilus microplus leucokinin receptor 3) that was constructed and selected as described by Holmes, et al.[47]. The CHO-K1 cells had been obtained from the American Type Culture Collection (ATCC) for transfection with the expression construct. This cell line has been kept in the laboratory since 2003. Cells that were transfected only with an empty plasmid are referred to as “vector-only” (V/O) cells and were used as a negative control. Before all experiments, the BMLK3 cell line or V/O cells were separately cultured in T-75 flasks with selective medium (F-12 K medium containing 10% FBS and 800 μgmL^−1 of G418 sulfate) for one to two passages in a humidified incubator at 37 °C and 5% CO2.
A fluorescence-based intracellular calcium mobilization end-point assay described by Xiong, et al.[50] was used to confirm the activity of the TMR-labeled RK8 peptide on a cell line expressing the tick kinin receptor. For this, BMLK3 and V/O cells were cultured in F-12 K medium (1% FBS and 400 μgmL^−1- of G418 Sulfate). The cells were seeded in a 96-well plate with 20,000 cells per well and incubated overnight at 37 °C and 5% CO2. The next morning, cells were prepared for the assay following the manufacturer’s instructions for the Fluo-8 Calcium Flux Assay Kit – NoWash (Abcam, Cambridge, United Kingdom). The F-12 K medium in the plate was removed by inverting the plate and gently blotting on paper towels. […] The calcium fluorescence signal was detected by a CLARIOstar (BMG LABTECH, Chicago, IL, United States) plate reader set to read at the fluorescence plate-mode with excitation and emission wavelengths of 490 and 525 nm at 29 °C. Calcium responses were read immediately after the addition of 10 µL of either TMR-RK8, unlabeled RK8, or blank solvent (1% DMSO in HBSS). […]

[3] = system: vector-only (V/O) CHO-K1 cells; assay: Cellular end-point fluorescence calcium mobilization assay, vector-only control cells; format: cell-based; conditions: 10 µM peptide, Fluo-8, 29 °C, 60 s, 4 technical replicates
From the text: Three peptides were used in this study. These included: 1) the ligand for the endogenous tick kinin receptor from Rhipicephalus sanguineus, Rhisa-kinin 8 peptide of sequence GTGEDQAFSPWGamide (Rhisa-K-8; RK8; of identical sequence to Rhimi-K-8 in Rhipicephalus microplus)[48], 2) the same peptide but fluorescently labeled at the N-terminus with tetramethylrhodamine (TMR) a red fluorescent dye, designated TMR-Rhisa-K-8 (TMR-RK8), and 3) a labeled peptide synthesized with the scrambled sequence of the kinin ligand, designated TMR-Scrambled. The sequence of TMR-RK8 was TMR-C-GTGEDQAFSPWGamide). The TMR-Scrambled kinin (TMR-C-GTQWGPGFEADSamide) served as a negative control for tissue labeling. […]
A fluorescence-based intracellular calcium mobilization end-point assay described by Xiong, et al.[50] was used to confirm the activity of the TMR-labeled RK8 peptide on a cell line expressing the tick kinin receptor. […] The calcium fluorescence signal was detected by a CLARIOstar (BMG LABTECH, Chicago, IL, United States) plate reader set to read at the fluorescence plate-mode with excitation and emission wavelengths of 490 and 525 nm at 29 °C. Calcium responses were read immediately after the addition of 10 µL of either TMR-RK8, unlabeled RK8, or blank solvent (1% DMSO in HBSS). […]

[4] = system: tick kinin receptors on midgut muscles; assay: Ligand competition assay on midgut; format: binding, Rhipicephalus sanguineus; conditions: TMR-RK8 10 µM 1 min, then unlabeled RK8 100 µM 1 min, tick saline, confocal 20x
From the text: Individual female ticks were immobilized on a Petri dish filled with wax by submerging their legs in melted wax heated with a soldering pencil (Electronic Control Soldering Station EC 1000, Weller, Apex, North Carolina, USA). Females were dissected under physiological saline following the protocol described by Tidwell et al.[51]. The tick was cut along the edge of the scutum/alloscutum using a stainless steel #12 scalpel blade (Integra Miltex, York, PA, USA), after which the scutum was removed with a pair of fine forceps. To expose the midgut for removal, the tracheae, Malpighian tubules, ovaries, rectal sac, and synganglion were removed with fine forceps in that order. The midgut was then carefully removed and placed into 200 µL of fresh tick saline (See Reagents and Peptides) on a single gasketed incubation chamber (500 µL, Size 22 × 40 mm, Electron Microscopy Sciences, Hatfield, PA). […]
Fluorescently-labeled midgut tissues were imaged using a Leica SP8 inverted confocal microscope. For fluorescence excitation, the 405 nm fixed-wavelength laser was used for DAPI and a white light laser selective for wavelengths between 470 and 670 nm was used for tetramethylrhodamine and phalloidin. […] Images were analyzed and computer-colored using Fiji/ImageJ (National Institutes of Health, Bethesda, MD). […]

GTGEDQAFSPWG-NH2 [RK8, endogenous ligand of the tick kinin receptor from Rhipicephalus sanguineus, identical to Rhimi-K-8 of R. microplus]
activity on the R. microplus recombinant receptor (in words) [1]: highly active at the nanomolar level
intracellular calcium fluorescence response / receptor activation (in words) ([2]; 10 nM to 10 μM (four concentrations), 1% DMSO in HBSS, Fluo-8, Ex 490/Em 525 nm, 29 °C, read 60 s at 1 s intervals, average raw fluorescence units of 4 technical replicates, simple linear regression): elicited a dose-dependent intracellular calcium fluorescence response
fluorescence units at highest concentration, TMR-RK8 compared with RK8 (in words) ([2]; highest concentration assayed 10 µM, Fluo-8, 4 technical replicates): maximal and similar for the highest concentration assayed of 10 µM
calcium fluorescence response of vector-only cells (in words) [3]: invariable background fluorescence
displacement of TMR-RK8 muscle labeling by unlabeled RK8 (in words) [4]: substantial reduction in the fluorescent signal observed on muscles; also recorded: greatly reduced the fluorescent signal of muscles; also recorded: competitive inhibition of fluorescent signal on muscle tissue
displacement of TMR-RK8 muscle labeling by unlabeled RK8 (in words) ([4]; listed as kinin 8): competed TMR-RK8, decreasing confocal microscopy signal intensity
